In US12054494B2, “Compound with anticancer activity” (KYOWA KIRIN CO., LTD., priority 2018, dated 2024):

Test system: MYC mRNA expression in SU-DHL-4 cells
Experiment: Suppressive effect on MYC mRNA expression (qRT-PCR)
Assay type: cell-based
Settings: test compound 100 nmol/L, 6 hours
Experimental: Suppressive Effect on MYC mRNA Expression
SU-DHL-4 cells were cultured at 37° C. using a carbon dioxide gas incubator (95% air, 5% CO2) in RPMI1640 medium in which FBS in an amount to give a final concentration of 10 vol % and PS in an amount to give a final concentration of 1 vol % were added. The cells were passaged twice a week at a volume of 20-40 mL so as to maintain a cell concentration of 1×10^6 cells/mL or less.
The cultured SU-DHL-4 cells were seeded at 6×10^5 cells/well in a transparent 6-well plate (Code No. 140675, Thermo Fisher Scientific). After seeding, the cells were precultured at 37° C. in a carbon dioxide gas incubator for 18 to 25 hours. Next, a 0.1 mmol/L DMSO solution of the test compound was prepared, diluted so that the concentration will be 200 times the final concentration in the RPMI1640 medium containing the above FBS and PS, and 1/200 volume of the diluted solution was added to each well. At this time, the final concentration of DMSO was adjusted to be 0.1 vol %. After adding the test compound, the cells were cultured at 37° C. in a carbon dioxide gas incubator for 6 hours.
Then, the cells were collected by centrifugation and used for extraction of mRNA. mRNA extraction from cells was performed using Maxwell® 16 LEV simplyRNA Purification Kits (Code No. AS1270, Promega). The mRNA recovery protocol was performed according to the manufacturer's recommended protocol attached to the kit.
0.001 mg of the recovered mRNA was converted to cDNA by SuperScript IV VILO Master Mix with ezDNase Enzyme (Code No. 11766050, Thermo Fisher Scientific). The cDNA conversion was performed, according to the manufacturer's recommended protocol attached to the kit, in 0.020 mL of the reaction solution, and GeneAmp® PCR System 9700 (Applied Biosystems) was used. The cDNA-converted sample was diluted 10-fold by adding 0.180 mL of RNase Free Water (Code No. 10977-023, Thermo Fisher Scientific) and used for quantitative real-time polymerase chain reaction (qRT-PCR). For the calibration curve of qRT-PCR, 0.08 mL of RNase Free Water was added to a cDNA sample using DMSO as a test compound for 5-fold dilution. Further, two 5-fold dilutions were prepared stepwise, and these three samples were used as the calibration curve samples.
The following reagents were used for qRT-PCR: TaqMan Gene Expression Assays, Inventoried (Primer probe: Code No. 4331182, Thermo Fisher Scientific, Assay ID: (i) MYC: Hs00153408_m1, (ii) ACTB: Hs01060665_g1, (iii) GAPDH: Hs04420697_g1, (iv) HPRT1: Hs02800695_m1); 2X TaqManR Fast Universal PCR Master Mix, no AmpEraseR UNG (Master Mix: Code No. 4367846, Thermo Fisher Scientific).
Primer probe (0.001 mL), Master Mix (0.010 mL), water (0.004 mL) and the diluted cDNA sample (0.005 mL) were mixed, and qRT-PCR analysis was performed. For qRT-PCR analysis, QuantStudio 7 Flex (Thermo Fisher Scientific) or 7500 Fast Real-Time PCR (Applied Biosystems) was used to measure in Fast mode and analyze. The expression level of the MYC gene was determined by quantifying ACTB, GAPDH, and HPRT1 as housekeeping genes and correcting by the following formula to calculate the suppression rate of (%) of MYC mRNA expression when the test compound was allowed to act at a concentration of 100 nmol/L. Corrected MYC expression=A/B • A: MYC expression level • B: Geometric mean of expression levels of ACTB, GAPDH and HPRT1
Using the corrected values, the suppression rate of MYC expression for the wells to which […] was calculated by the following formula. Suppression rate of MYC expression (%)=100−C/D×100 • C: Corrected MYC expression level in a well containing test compound • D: Corrected MYC expression level in a well to which test compound was not added

Row | SMILES | Suppression rate of MYC mRNA expression [%]
1 | CCC(=O)N1c2ccccc2[C@H](NCCCCC(=O)NCc2cn(-c3ccc(N[C@@H]4C[C@H](C)N(C(=O)CC)c5ccccc54)cc3)nn2)C[C@@H]1C (relative stereo) [Compound 12f, 5-(((2S*,4R*)-2-Methyl-1-propionyl-1,2,3,4-tetrahydroquinolin-4-yl)amino)-N-((1-(4-(((2S,4R)-2-methyl-1-propionyl-1,2,3,4-tetrahydroquinolin-4-yl)amino)phenyl)-1H-1,2,3-triazol-4-yl)methyl)pentane amide] | 97.9
2 | CCC(=O)N1c2ccccc2[C@H](Nc2ccc(C(=O)NCCNS(=O)(=O)c3ccc(N[C@@H]4C[C@H](C)N(C(=O)CC)c5ccccc54)cc3)cc2)C[C@@H]1C [Compound 4d, 4-{[(2S,4R)-2-Methyl-1-propionyl-1,2,3,4-tetrahydroquinolin-4-yl]amino}-N-{2-[(4-{[(2S,4R)-2-methyl-1-propionyl-1,2,3,4-tetrahydroquinolin-4-yl]amino}phenyl)sulfonamide]ethyl}benzamide] | 98.3
3 | CCC(=O)N1c2ccccc2[C@H](Nc2ccc(Cn3cc(C(=O)Nc4ccc(N[C@@H]5C[C@H](C)N(C(=O)CC)c6ccccc65)cc4)nn3)cc2)C[C@@H]1C [Compound 5j, 1-(4-(((2S,4R)-2-Methyl-1-propionyl-1,2,3,4-tetrahydroquinolin-4-yl)amino)benzyl)-N-(4-(((2S,4R)-2-methyl-1-propionyl-1,2,3,4-tetrahydroquinolin-4-yl)amino)phenyl)-1H-1,2,3-triazolee-4-carboxamide] | 96.8
4 | CCC(=O)N1c2ccccc2[C@H](Nc2ccc(CCC(=O)NCC3(NC4CCC(N[C@@H]5C[C@H](C)N(C(=O)CC)c6ccccc65)CC4)COC3)cc2)C[C@@H]1C (some centres unmarked) [Compound 7h] | 97.5
5 | CCC(=O)N1c2ccccc2[C@H](Nc2ccc(NC(=O)CCCC(=O)NC3CCC(N[C@@H]4C[C@H](C)N(C(=O)CC)c5ccccc54)CC3)cc2)C[C@@H]1C (stereo partly drawn) [Compound 7o, N^1-((1R,4r)-4-(((2S,4R)-2-Methyl-1-propionyl-1,2,3,4-tetrahydroquinolin-4-yl)amino)cyclohexyl)-N^5-(4-(((2S,4R)-2-methyl-1-propionyl-1,2,3,4-tetrahydroquinolin-4-yl)amino)phenyl)glutaramide] | 97.4
6 | CCC(=O)N1c2ccccc2[C@H](Nc2ccc(NC(=O)N3CCN(C(=O)C4CCC(N[C@@H]5C[C@H](C)N(C(=O)CC)c6ccccc65)CC4)CC3)cc2)C[C@@H]1C (stereo partly drawn) [Compound 7p, 4-((1R,4r)-4-(((2S,4R)-2-Methyl-1-propionyl-1,2,3,4-tetrahydroquinolin-4-yl)amino)cyclohexane-1-carbonyl)-N-(4-(((2S,4R)-2-methyl-1-propionyl-1,2,3,4-tetrahydroquinolin-4-yl)amino)phenyl)piperazine-1-carboxamide] | 97.9
7 | CCC(=O)N1c2ccccc2[C@H](Nc2ccc(-c3nnc(CNC(=O)[C@H]4CC[C@H](N[C@@H]5C[C@H](C)N(C(=O)CC)c6ccccc65)CC4)o3)cc2)C[C@@H]1C [Compound 7q, (1R,4R)-4-(((2S,4R)-2-Methyl-1-propionyl-1,2,3,4-tetrahydroquinolin-4-yl)amino)-N-((5-(4-(((2S,4R)-2-methyl-1-propionyl-1,2,3,4-tetrahydroquinolin-4-yl)amino)phenyl)-1,3,4-oxadiazol-2-yl)methyl)cyclohexane-1-carboxamide] | 97.4
8 | CCC(=O)N1c2ccccc2[C@H](Nc2ccc(NC(=O)CNC(=O)N[C@H]3CC[C@H](N[C@@H]4C[C@H](C)N(C(=O)CC)c5ccccc54)CC3)cc2)C[C@@H]1C [Compound 8j, 2-(3-((1R,4R)-4-(((2S,4R)-2-Methyl-1-propionyl-1,2,3,4-tetrahydroquinolin-4-yl)amino)cyclohexyl)ureido)-N-(4-(((2S,4R)-2-methyl-1-propionyl-1,2,3,4-tetrahydroquinolin-4-yl)amino)phenyl)acetamide] | 97.2
9 | CCC(=O)N1c2ccccc2[C@H](Nc2ccc(C(=O)N3CC(C(=O)N[C@H]4CC[C@H](N[C@@H]5C[C@H](C)N(C(=O)CC)c6ccccc65)CC4)C3)cc2)C[C@@H]1C [Compound 8r, 1-(4-(((2S,4R)-2-Methyl-1-propionyl-1,2,3,4-tetrahydroquinolin-4-yl)amino)benzoyl)-N-((1R,4R)-4-(((2S,4R)-2-methyl-1-propionyl-1,2,3,4-tetrahydroquinolin-4-yl)amino)cyclohexyl)azetidine-3-carboxamide] | 96.7
10 | CCC(=O)N1c2ccccc2[C@H](Nc2ccc(NC(=O)CCCC(=O)NC3CCN(Cc4cc(O)cc(-c5c(C)noc5C)c4)CC3)cc2)C[C@@H]1C [Compound 12c, N^1-(1-(3-(3,5-Dimethylisoxazol-4-yl)-5-hydroxybenzyl)piperidinyl)-N^5-(4-(((2S,4R)-2-methyl-1-propionyl-1,2,3,4-tetrahydroquinolin-4-yl)amino)phenyl)glutaramide] | 97.8
11 | CCC(=O)N1c2ccccc2[C@H](Nc2ccc(C(=O)NCCCNC(=O)c3ccc(C4=N[C@@H](CC(=O)OC5CCC(O)CC5)c5nnc(C)n5-c5sc(C)c(C)c54)cc3)cc2)C[C@@H]1C (stereo partly drawn) [Compound 13d, 4-Hydroxycyclohexyl 2-((S)-2,3,9-trimethyl-4-(4-((3-(4-(((2S,4R)-2-methyl-1-propionyl-1,2,3,4-tetrahydroquinolin-4-yl)amino)benzamide)propyl)carbamoyl)phenyl)-6H-thieno[3,2-f][1,2,4]triazolo[4,3-a][1,4]diazepin-6-yl)acetate] | 97.2
12 | CCC(=O)N1c2ccccc2[C@H](Nc2ccc(C(=O)NCCCNC(=O)c3ccc(C4=N[C@@H](CC(=O)OCCCOC)c5nnc(C)n5-c5sc(C)c(C)c54)cc3)cc2)C[C@@H]1C [Compound 13h, 3-Methoxypropyl 2-((S)-2,3,9-trimethyl-4-(4-((3-(4-(((2S,4R)-2-methyl-1-propionyl-1,2,3,4-tetrahydroquinolin-4-yl)amino)benzamide)propyl)carbamoyl)phenyl)-6H-thieno[3,2-f][1,2,4]triazolo[4,3-a][1,4]diazepin-6-yl)acetate] | 97.4
13 | CCC(=O)N1c2ccccc2[C@H](Nc2ccc(NC(=O)CCCC(=O)Nc3ccc(Cn4c(C(=O)OCCN(C)C)cc5c4CCCC5=O)cc3)cc2)C[C@@H]1C [Compound 15a, 2-(Dimethylamino)ethyl 1-(4-(5-((4-(((2S,4R)-2-methyl-1-propionyl-1,2,3,4-tetrahydroquinolin-4-yl)amino)phenyl)amino)-5-oxopentanamide)benzyl)-4-oxo-4,5,6,7-tetrahydro-1H-indole-2-carboxylate] | 97.6
14 | Cc1sc2c(c1C)C(c1ccc(Cl)cc1)=N[C@@H](CC(=O)NCCOCCOCCOCCOCCOCCOCCOCCNC(=O)C[C@@H]1N=C(c3ccc(Cl)cc3)c3c(sc(C)c3C)-n3c(C)nnc31)c1nnc(C)n1-2 [compound 2, reference compound] | 57.7
